Columns and labels:
Type in all cases: in vivo
[1] = tested on: DOCA Na hypertensive rat; assay: Antihypertensive activity, subacute oral dosing in the DOCA Na rat (Example 1, Table I)
Method: (§1) A test was conducted for antihypertensive activity in the DOCA Na rat. DOCA rats weighing 170 to 210 grams are used in the test. DOCA Na hypertension is induced by unilateral nephrectomy followed by subcutaneous implantation of a 25 mg. desoxycorticosterone (DOCA) pellet. Animals are placed in individual cages receiving 0.9% sodium chloride solution to drink and rat chow diet ad libitum. Two weeks are allowed to elapse from the time of surgery for development of hypertension, i.e., systolic blood pressure of at least 150 mmHg.
Systolic blood pressure and heart rate are measured indirectly from the tail pressure pulse of unanesthetized rats, using a pneumatic pulse transducer. Control readings are taken prior to drug and post drug readings are taken at 1, 3, 6 and 24 hours.
(§2) The experimental results are represented as absolute values. Drug-related alterations in systolic blood pressure are expressed as percentage change by comparing control absolute values with post drug absolute values. Compounds are considered active when about a 15% or greater reduction in blood pressure is obtained. However, the reduction in blood pressure must show mathematical significance ([…]).
A derivative of the polyether ionophore, lasalocid, i.e., the bromo derivative of lasalocid, was tested in the above screen. The compound was orally administered for a five-day period by intubation and thereafter dosing was discontinued but blood pressure monitoring was continued. The following table illustrates the results obtained utilizing bromolasalocid as the test drug.

[2] = tested on: spontaneous hypertensive (SH) rat; assay: Effects on blood pressure in the spontaneous hypertensive (SH) rat (Example 2, Table II)
Method: Test conducted for effects on blood pressure in the spontaneous hypertensive (SH) rat.
Twelve week old spontaneous hypertensive male rats (Okomoto strain) are used as a model in the antihypertensive test.
Systolic blood pressure is measured indirectly from the tail of unanesthetized rats using a pneumatic pulse transducer. Control readings are taken prior to drug administration and post drug readings are taken at 1, 3, 6 and 24 hours.
Drug-related alteration in systolic blood pressure is expressed as percentage change by comparing control absolute values with post drug absolute values.
The results are expressed as absolute values and percent changes from controls.
Compounds are considered active when about a 15% or greater reduction in blood pressure is obtained. However, the reduction in blood pressure must show mathematical significance ([…]). The compound was administered for a five-day period by intubation and thereafter dosing was discontinued but blood pressure monitoring was continued.

[3] = tested on: DOCA Na rat; assay: Low dose chronic administration in the DOCA Na rat (Example 4, Table IV); details: for Stroke Volume Index, mean value: control 4.82±0.31; for Pulse pressure, mean value: control 62.5±5.3; for Arterial blood pressure, mean value: control 175.0±3.8; for Arterial blood pressure, % Δ / Pulse pressure, % Δ / Stroke Volume Index, % Δ: vs control
Method: A test was conducted for antihypertensive activity in the DOCA Na rat utilizing low dose chronic administration.
as §1, with “DOCA” for “A test was conducted for antihypertensive activity in the DOCA”, “male” for “rat. DOCA”
Mean blood pressure and heart rate in the rats dosed at 5 mg/kg/day, 1 mg/kg/day, 0.1 mg/kg/day and as those used as controls are measured directly by placing a polyethylene catheter in a femoral artery and thereafter measuring the blood pressure by a Stathem Pressure Transducer. Control animals and drug dosed subjects are measured side by side. Direct readings were taken when the animal model began to show signs of inherent deterioration.
as §2, with “mean” for “systolic”, “with” for “with post”
A derivative of the polyether ionophore, laslaocid, i.e., the bromo derivative of lasalocid, was tested in the above screen. The compound was administered in a food admix on a daily basis.

[4] = Oral (per os) toxicity (LD50); details: in vivo, read-out: LD50
[5] = 0.1 mg/kg/day in food admix, at 24 Days
[6] = 1 mg/kg/day in food admix, at 28 Days
[7] = 5 mg/kg/day in food admix, at 11 Days

CC[C@@H](C(=O)[C@@H](C)[C@@H](O)[C@H](C)CCc1c(Br)cc(C)c(O)c1C(=O)O)[C@H]1O[C@](CC)([C@H]2CC[C@](O)(CC)[C@H](C)O2)C[C@@H]1C [bromolasalocid]
Average Systolic Blood Pressure Per Group ([1]; 5 mg/kg per day oral for 5 days, Day 2 am, pre-drug 209): 206 mmHg
Average Systolic Blood Pressure Per Group ([1]; 5 mg/kg per day oral for 5 days, Day 2 pm, pre-drug 209): 194 mmHg
Average Systolic Blood Pressure Per Group ([1]; 5 mg/kg per day oral for 5 days, Day 3 pm, pre-drug 209): 191 mmHg
Average Systolic Blood Pressure Per Group ([1]; 5 mg/kg per day oral for 5 days, Day 4 am, pre-drug 209): 206 mmHg
Average Systolic Blood Pressure Per Group ([1]; 5 mg/kg per day oral for 5 days, Day 5 am, pre-drug 209): 197 mmHg
Average Systolic Blood Pressure Per Group ([1]; 5 mg/kg per day oral for 5 days, Day 5 pm, pre-drug 209): 196 mmHg
Average Systolic Blood Pressure Per Group ([1]; 10 mg/kg per day oral for 5 days, Day 1 pm, pre-drug 217, p<.05): 192 mmHg
Average Systolic Blood Pressure Per Group ([1]; 10 mg/kg per day oral for 5 days, Day 2 am, pre-drug 217, p<.05): 181 mmHg
Average Systolic Blood Pressure Per Group ([1]; 10 mg/kg per day oral for 5 days, Day 2 pm, pre-drug 217, p<.05): 166 mmHg
Average Systolic Blood Pressure Per Group ([1]; 10 mg/kg per day oral for 5 days, Day 3 am, pre-drug 217, p<.05): 171 mmHg
Average Systolic Blood Pressure Per Group ([1]; 10 mg/kg per day oral for 5 days, Day 3 pm, pre-drug 217, p<.05): 163 mmHg
Average Systolic Blood Pressure Per Group ([1]; 10 mg/kg per day oral for 5 days, Day 4 am, pre-drug 217, p<.05): 173 mmHg
Average Systolic Blood Pressure Per Group ([1]; 10 mg/kg per day oral for 5 days, Day 4 pm, pre-drug 217, p<.05): 157 mmHg
Average Systolic Blood Pressure Per Group ([1]; 10 mg/kg per day oral for 5 days, Day 5 pm, pre-drug 217, p<.05): 166 mmHg
Period for which blood pressure remained below control after drug dosing ([1]; after oral dosing for the first five consecutive days): 10 days
Average Systolic Blood Pressure Per Group ([2]; 10 mg/kg per day for 5 days, Day 1 pm, pre-drug 227, p<.05): 211 mmHg
Average Systolic Blood Pressure Per Group ([2]; 10 mg/kg per day for 5 days, Day 2 am, pre-drug 227): 215 mmHg
Average Systolic Blood Pressure Per Group ([2]; 10 mg/kg per day for 5 days, Day 2 pm, pre-drug 227): 217 mmHg
Average Systolic Blood Pressure Per Group ([2]; 10 mg/kg per day for 5 days, Day 3 am, pre-drug 227, p<.05): 203 mmHg
Average Systolic Blood Pressure Per Group ([2]; 10 mg/kg per day for 5 days, Day 3 pm, pre-drug 227, p<.05): 199 mmHg
Average Systolic Blood Pressure Per Group ([2]; 10 mg/kg per day for 5 days, Day 4 am, pre-drug 227, p<.05): 193 mmHg
Average Systolic Blood Pressure Per Group ([2]; 10 mg/kg per day for 5 days, Day 4 pm, pre-drug 227, p<.05): 198 mmHg
Average Systolic Blood Pressure Per Group ([2]; 10 mg/kg per day for 5 days, Day 5 am, pre-drug 227, p<.05): 200 mmHg
Average Systolic Blood Pressure Per Group ([2]; 10 mg/kg per day for 5 days, Day 5 pm, pre-drug 227, p<.05): 209 mmHg
Average Systolic Blood Pressure Per Group ([2]; 10 mg/kg per day for 5 days, Day 8 am, pre-drug 227, p<.05): 199 mmHg
Average Systolic Blood Pressure Per Group ([2]; 20 mg/kg per day for 5 days, Day 1 pm, pre-drug 211): 201 mmHg
Average Systolic Blood Pressure Per Group ([2]; 20 mg/kg per day for 5 days, Day 2 am, pre-drug 211): 209 mmHg
Average Systolic Blood Pressure Per Group ([2]; 20 mg/kg per day for 5 days, Day 2 pm, pre-drug 211): 200 mmHg
Average Systolic Blood Pressure Per Group ([2]; 20 mg/kg per day for 5 days, Day 3 am, pre-drug 211): 214 mmHg
Average Systolic Blood Pressure Per Group ([2]; 20 mg/kg per day for 5 days, Day 3 pm, pre-drug 211): 209 mmHg
Average Systolic Blood Pressure Per Group ([2]; 20 mg/kg per day for 5 days, Day 4 am, pre-drug 211): 205 mmHg
Average Systolic Blood Pressure Per Group ([2]; 20 mg/kg per day for 5 days, Day 4 pm, pre-drug 211): 204 mmHg
Average Systolic Blood Pressure Per Group ([2]; 20 mg/kg per day for 5 days, Day 5 am, pre-drug 211): 210 mmHg
Average Systolic Blood Pressure Per Group ([2]; 20 mg/kg per day for 5 days, Day 5 pm, pre-drug 211, p<.05): 187 mmHg
Average Systolic Blood Pressure Per Group ([2]; 20 mg/kg per day for 5 days, Day 8 am, pre-drug 211): 210 mmHg
Average Systolic Blood Pressure Per Group ([2]; 50 mg/kg per day for 5 days, Day 1 pm, pre-drug 215): 208 mmHg
Average Systolic Blood Pressure Per Group ([2]; 50 mg/kg per day for 5 days, Day 2 am, pre-drug 215, p<.05): 193 mmHg
Average Systolic Blood Pressure Per Group ([2]; 50 mg/kg per day for 5 days, Day 2 pm, pre-drug 215, p<.05): 176 mmHg
Average Systolic Blood Pressure Per Group ([2]; 50 mg/kg per day for 5 days, Day 3 am, pre-drug 215, p<.05): 175 mmHg
Average Systolic Blood Pressure Per Group ([2]; 50 mg/kg per day for 5 days, Day 3 pm, pre-drug 215, p<.05): 160 mmHg
Average Systolic Blood Pressure Per Group ([2]; 50 mg/kg per day for 5 days, Day 4 am, pre-drug 215, p<.05): 183 mmHg
Average Systolic Blood Pressure Per Group ([2]; 50 mg/kg per day for 5 days, Day 4 pm, pre-drug 215, p<.05): 169 mmHg
Average Systolic Blood Pressure Per Group ([2]; 50 mg/kg per day for 5 days, Day 5 am, pre-drug 215, p<.05): 184 mmHg
Average Systolic Blood Pressure Per Group ([2]; 50 mg/kg per day for 5 days, Day 5 pm, pre-drug 215, p<.05): 167 mmHg
Average Systolic Blood Pressure Per Group ([2]; 50 mg/kg per day for 5 days, Day 8 am, pre-drug 215): 207 mmHg
Average Systolic Blood Pressure Per Group ([2]; 100 mg/kg per day for 5 days, Day 1 pm, pre-drug 218, p<.05): 176 mmHg
Average Systolic Blood Pressure Per Group ([2]; 100 mg/kg per day for 5 days, Day 2 am, pre-drug 218, p<.05): 185 mmHg
Average Systolic Blood Pressure Per Group ([2]; 100 mg/kg per day for 5 days, Day 2 pm, pre-drug 218, p<.05): 142 mmHg
Average Systolic Blood Pressure Per Group ([2]; 100 mg/kg per day for 5 days, Day 3 am, pre-drug 218, p<.05): 128 mmHg
Average Systolic Blood Pressure Per Group ([2]; 100 mg/kg per day for 5 days, Day 3 pm, pre-drug 218, p<.05): 123 mmHg
Average Systolic Blood Pressure Per Group ([2]; 100 mg/kg per day for 5 days, Day 4 am, pre-drug 218, p<.05): 113 mmHg
Average Systolic Blood Pressure Per Group ([2]; 100 mg/kg per day for 5 days, Day 4 pm, pre-drug 218, p<.05): 131 mmHg
Average Systolic Blood Pressure Per Group ([2]; 100 mg/kg per day for 5 days, Day 5 pm, pre-drug 218, p<.05): 108 mmHg
Stroke Volume Index, mean value [3, 5]: 4.03±0.17
Pulse pressure, mean value [3, 5]: 41.1±7.4
Arterial blood pressure, mean value [3, 5]: 132.4±16.0
Arterial blood pressure, % Δ [3, 5]: -24.34%
Pulse pressure, % Δ [3, 5]: -34.24%
Stroke Volume Index, % Δ [3, 5]: -16.39%
Stroke Volume Index, mean value [3, 6]: 5.86±.31
Pulse pressure, mean value [3, 6]: 45±3.5
Arterial blood pressure, mean value [3, 6]: 140.1±16
Arterial blood pressure, % Δ [3, 6]: -19.94%
Pulse pressure, % Δ [3, 6]: -28.00%
Stroke Volume Index, % Δ [3, 6]: 21.58%
Stroke Volume Index, mean value [3, 7]: 4.96±0.61
Pulse pressure, mean value [3, 7]: 47.4±7.3
Arterial blood pressure, mean value [3, 7]: 140.0±12.6
Arterial blood pressure, % Δ [3, 7]: -20.00%
Pulse pressure, % Δ [3, 7]: -24.16%
Stroke Volume Index, % Δ [3, 7]: 2.90%
blood pressure (in words) ([3]; chronic administration): lowered
pulse pressure (in words) ([3]; chronic administration): lowered
pump performance (in words) ([3]; chronic administration): competent
stroke volume index (in words) ([3]; chronic administration): no significant alteration has occurred
LD50 [4]: 1200 mg/kg

From patent US4161520A, “Method of treating hypertension” (priority 1976, dated 1979)
